According to patent US7087620B2, “Liquid pharmaceutical formulations containing 3,7-diazabicyclo[3,3,1]nonane compounds and methods of treatment relating to anti-arrhythmic events” (Solvay Pharmaceuticals GmbH, priority 2002, dated 2006):
Counter-ions that a name gives are not always drawn.

Test system: healthy male subjects
Experiment: Two step infusion study in healthy male subjects: safety and tolerability
Type: in vivo, human
Method: A double-blind, placebo-controlled, randomized, single iv dose, two periods cross-over study to assess the safety, tolerability, pharmacodynamics and pharmacokinetics during and following a two step infusion of Tedisamil in healthy male subjects was performed with the following drug and dosages: Tedisamil dihydrochloride/0.4 mg/kg body weight infused over 30 minutes.
Screening assessments included physical examination, ECG, HIV/Hepatitis screening, blood pressure and heart rate measurements, clinical laboratory determinations, urine drug screen, alcohol breath test, and medical history. Follow-up assessments included physical examination, ECG, blood pressure and heart rate measurements, clinical laboratory determinations, and questions for adverse events and concomitant medication. During concomitant administration of Tedisamil, blood pressure, heart rate, and ECGs were recorded. Adverse events and concomitant medication were monitored throughout the study.
Subjects who received study medication, were considered valid for safety evaluation.
Treatment emergent adverse events, defined as any adverse event present at baseline that worsened or any event that began after treatment with study medication, were summarized by COSTART term for each treatment group. Each adverse event was evaluated for frequency of occurrence, duration, intensity, action taken, outcome, and relationship to administration of the study medication. Adverse events were listed for each subject.
Listings of abnormal or out of range values for each subject were presented for vital signs, laboratory assays, and physical examinations. Adverse events, blood pressure, heart rate and clinical laboratory data were analyzed descriptively and reviewed to evaluate the safety of all randomized subjects. Any clinical abnormalities were described.

C1CCC2(C1)C1CN(CC3CC3)CC2CN(CC2CC2)C1 [tedisamil dihydrochloride, N,N′-dicyclopropylmethyl-9,9-tetramethylen-3,7-diazabicyclo[3,3,1]nonane dihydrochloride]
Findings in hematology, clinical chemistry, urinalysis and vital signs (0.4 mg/kg iv two step infusion): No clinically relevant findings | Safety and tolerability (two step infusion of 0.4 mg tedisamil dihydrochloride per kg (0.32 mg/kg base), dihydrochloride): well tolerated
